Earlier results as cited in patent US20110184060A1, “ORAL DOSAGE FORMS HAVING A HIGH LOADING OF A TRANEXAMIC ACID PRODRUG” (XenoPort, Inc., priority 2010, published 2011).
Where two headings read alike, the source gives them in different places. Each block holds one compound with its values, some of them ahead of it.

How the values were obtained:
[1] = human subjects, prodrug
[2] = statement in words, no data given
[3] = not given; remark: listed apart in the source

Structure (SMILES): CCOC(=O)OC(C)OC(=O)[C@H]1CC[C@H](CN)CC1 (relative stereo) [Kabi 2161, 1-(ethoxycarbonyl)oxyethyl trans-4-(aminomethyl)-cyclohexane carboxylate]
oral bioavailability of tranexamic acid [1]: improved oral bioavailability of tranexamic acid

Structure (SMILES): CC(OC(=O)NC[C@H]1CC[C@H](C(=O)O)CC1)OC(=O)C(C)C (stereo partly drawn) [Compound (1), 4-({[(2-methylpropanoyloxy)ethoxy]carbonylamino}methyl)cyclohexanecarboxylic acid]
oral bioavailability of tranexamic acid [2]: high oral bioavailability of tranexamic acid

oral bioavailability ([3]; oral tranexamic acid): about 30%
terminal elimination half life ([3]; tranexamic acid): about 2 hours
Structure (SMILES): NC[C@H]1CC[C@H](C(=O)O)CC1 [tranexamic acid, trans-4-(aminomethyl)-cyclohexanecarboxylic acid]
reduction of post-operative bleeding (cardiopulmonary bypass surgery, prophylactic administration of lysine analogs such as tranexamic acid): 30-40%
reduction of total blood loss (subjects undergoing total knee arthroplasty, prophylactic administration): up to 50%
